This passage reports relative viability results from the supplement of paper PMC10307832.

Experiment in all cases: relative viability (nuclei count vs DMSO), 5 days (fraction); higher = more cells survive
Compound in the assay “Tanzisertib + Tozasertib”: O[C@H]1CC[C@H](Nc2ncc3nc(Nc4c(F)cc(F)cc4F)n([C@H]4CCOC4)c3n2)CC1 [Tanzisertib] + Cc1cc(Nc2cc(N3CCN(C)CC3)nc(Sc3ccc(NC(=O)C4CC4)cc3)n2)n[nH]1 [Tozasertib] (partner 0.1 µM)
Put shortly:
(§1)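 Relative viability was taken as the ratio of nuclei in treated wells to nuclei in vehicle wells. Lung cancer cell lines in 1536-well plates received compounds by pin tool one day after seeding, either one drug alone or a fixed anchor-drug dose plus five library-drug doses (not always all listed) in √10 steps. Nuclei were counted on 4× images after 5 days of treatment, and values are medians of duplicate plates.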

Compound in assay [1]: C1CNCCC1C2=CC(=NN2)C3=CC=NC=C3 + COc1cc2c(Oc3ccc(NC(=O)C4(C(=O)Nc5ccc(F)cc5)CC4)cc3F)ccnc2cc1OCCCN1CCOCC1 [Foretinib] (partner 0.25 µM)
Put shortly: as §1

Compound in the assay “Tanzisertib + Linsitinib”: O[C@H]1CC[C@H](Nc2ncc3nc(Nc4c(F)cc(F)cc4F)n([C@H]4CCOC4)c3n2)CC1 [Tanzisertib] + C[C@]1(O)C[C@@H](c2nc(-c3ccc4ccc(-c5ccccc5)nc4c3)c3c(N)nccn32)C1 [Linsitinib] (partner 1 µM)
Put shortly:
as §1

Compound in assay [2]: C1CNCCC1C2=CC(=NN2)C3=CC=NC=C3 + C[C@]1(O)C[C@@H](c2nc(-c3ccc4ccc(-c5ccccc5)nc4c3)c3c(N)nccn32)C1 [Linsitinib] (partner 1 µM)
The method, boiled down: as §1

Take SK-MES-1: the relative viability with Tanzisertib + Tozasertib (first compound 0.08 µM) was found to be 0.971; in the assay with Tanzisertib + Tozasertib (first compound 0.253 µM) it was 0.889; with Tanzisertib + Tozasertib (first compound 0.8 µM) it was 0.991; with Tanzisertib + Tozasertib (first compound 2.53 µM) it was 0.951; with Tanzisertib + Tozasertib (first compound 8 µM), 0.992; in assay [1] (first compound 0.08 µM), 0.85. Further, the relative viability in assay [1] (first compound 0.8 µM) is 0.855; in assay [1] (first compound 2.53 µM), 1.05; in assay [1] (first compound 8 µM), 1; in the assay with Tanzisertib + Linsitinib (first compound 0.08 µM), 1.08; with Tanzisertib + Linsitinib (first compound 0.253 µM) it was 1.06; with Tanzisertib + Linsitinib (first compound 0.8 µM), 1.06. The relative viability was 1.12 with Tanzisertib + Linsitinib (first compound 2.53 µM); 0.832 with Tanzisertib + Linsitinib (first compound 8 µM); 1.07 in assay [2] (first compound 0.08 µM); 1.1 in assay [2] (first compound 0.8 µM); 1.15 in assay [2] (first compound 2.53 µM); 0.953 in assay [2] (first compound 8 µM).

As for SW 1573, the relative viability in the assay with Tanzisertib + Tozasertib (first compound 0.08 µM) came out at 0.174; with Tanzisertib + Tozasertib (first compound 0.253 µM), 0.185; with Tanzisertib + Tozasertib (first compound 0.8 µM), 0.151; with Tanzisertib + Tozasertib (first compound 2.53 µM) it was 0.204; with Tanzisertib + Tozasertib (first compound 8 µM) it was 0.139; in assay [1] (first compound 0.08 µM), 0.679. In addition, the relative viability in assay [1] (first compound 0.8 µM) amounted to 0.967; in assay [1] (first compound 2.53 µM), 0.901; in assay [1] (first compound 8 µM), 1.03; with Tanzisertib + Linsitinib (first compound 0.08 µM), 0.968; in the assay with Tanzisertib + Linsitinib (first compound 0.253 µM), 0.85; in the assay with Tanzisertib + Linsitinib (first compound 0.8 µM) it was 0.703. Moreover, the relative viability with Tanzisertib + Linsitinib (first compound 2.53 µM) is 0.753; with Tanzisertib + Linsitinib (first compound 8 µM) it was 0.672; in assay [2] (first compound 0.08 µM) it was 0.815; in assay [2] (first compound 0.8 µM), 0.786; in assay [2] (first compound 2.53 µM), 0.902; in assay [2] (first compound 8 µM) it was 0.952.
